Data as given in patent publication US9610291B2, “Treatment of respiratory depression” (NUMEDICUS LIMITED, priority 2012, dated 2017).

What was measured:
[1] = system: conscious rats; experiment: Opiate-induced respiratory depression; whole-body plethysmography in conscious rats; assay type: in vivo; conditions: for increase in the respiratory activity: before morphine
Experimental: Whole-body plethysmography is used to assess respiratory rate (fR, in breaths per minute) and tidal volume (VT, in microliters per gram) in conscious rats. Animals are placed in a recording chamber (˜700 ml) flushed continuously with a humidified mixture of 79% nitrogen and 21% oxygen (temperature 22-24° C.). Level of carbon dioxide (CO2) in the chamber is monitored online using a fast-response CO2 analyser. Animals are allowed ˜40 min to acclimatize to the chamber environment at normoxia-normocapnia (21% oxygen, 79% nitrogen and <0.3% CO2) before measurements of baseline ventilation are taken.
Respiratory depression is induced in conscious rats by intramuscular (10 mg/kg) administration of morphine.
Data are acquired using Power1401 interface, saved and analyzed off-line using Spike2 software (CED Limited, Cambridge, UK).
Parameters measured included fR—respiratory rate (in breaths per minute); VT—tidal volume (in microliters per gram of body weight); VE—minute ventilation fR×VT (in microliters per gram of body weight per minute).
The data were analysed by ANOVA followed by the Tukey-Kramer's post hoc test, Student's t-test, or non-parametric Wilcoxon-Mann-Whitney U test, as appropriate. Data are presented as means±SEM.

[2] = system: Methyl-CpG-binding protein 2 (Mecp) null mice; experiment: Rett's syndrome model; plethysmography in Mecp2 null mice; assay type: in vivo; conditions: tianeptine 10 mg/kg i.p. in saline, 5.6 Hz before treatment, p=0.037, paired t test
Experimental: Methyl-CpG-binding protein 2 (Mecp) null mice were of the B6.129P2(C)-Mecp2^tm1.1Bird strain. Mice were produced and genotyped using published methods (Miralvès J, Magdeleine E, Joly E. Design of an improved set of oligonucleotide primers for genotyping MeCP2^tm1.1Bird KO mice by PCR. Mol Neurodegener. 2007; 2:16; Bissonnette J M, Knopp S J. Separate respiratory phenotypes in methyl-CpG-binding protein 2 (Mecp2) deficient mice. Pediatr Res. 2006; 59:513-518).
Breathing was recorded over a 60 min control period following drug treatment in the same way as for the respiratory depression experiments, with the same equipment and software. After the recording sessions, mice were euthanized with CO2.

CN1c2ccccc2C(NCCCCCCC(=O)O)c2ccc(Cl)cc2S1(=O)=O (centres unmarked) [tianeptine, 7-[(3-chloro-6,11-dihydro-6-methyl-dibenzo[c,f][1,2]thiazepin-11-yl)amino]heptanoic acid S,S-dioxide]
increase in the respiratory activity ([1]; tianeptine 2 mg/kg ip, 5 min after administration, conscious rats, p<0.05): ~30% | morphine-induced respiratory depression ([1]; tianeptine 2 mg/kg ip, morphine 10 mg/kg intramuscular 5 minutes after tianeptine, conscious rats): appears to prevent morphine-induced respiratory depression | increase in the respiratory activity ([1]; tianeptine 10 mg/kg, rats): not observed | morphine-induced respiratory depression ([1]; tianeptine 10 mg/kg, followed by morphine 10 mg/kg intramuscular, rats): prevented | peak dominant frequency (respiratory frequency pattern) after drug treatment [2]: 4.8 Hz
